Active and inactive are the calls of the source. The rule behind the calls is not given here.
Tests used:
[1] = Cytotoxicity against PBMC (unknown origin) assessed as cell viability at 20 uM after 24 hrs by trypan blue exclusion assay relative to control; type: cell-based; conditions: read-out: Activity
PBMC = assay: Cytotoxicity against PBMC (unknown origin) assessed as reduction in cell viability at 1 to 20 uM after 24 hrs by trypan blue exclusion assay; type: cell-based
SU-DHL-2 = assay: Cytotoxicity against human SU-DHL-2 cells assessed as reduction in cell viability after 24 hrs by CellTiter-Glo assay; type: functional, cell-based; conditions: SU-DHL-2, 24 h
[2] = Cytotoxicity against human OCI-Ly8 cells assessed as reduction in cell viability after 24 hrs by CellTiter-Glo assay; type: functional, cell-based; conditions: OCI-Ly8, 24 h
NB-4 [3] = assay: Cytotoxicity against human NB4 cells assessed as reduction in cell viability after 24 hrs by CellTiter-Glo assay; type: functional, cell-based; conditions: NB-4, 24 h
[4] = Cytotoxicity against human NB4-LR2 cells assessed as reduction in cell viability after 24 hrs by CellTiter-Glo assay; type: functional, cell-based
HL-60 = assay: Cytotoxicity against human HL60 cells assessed as reduction in cell viability after 24 hrs by CellTiter-Glo assay; type: functional, cell-based; conditions: HL-60, 24 h
Ramos = assay: Cytotoxicity against human Ramos cells assessed as reduction in cell viability after 24 hrs by CellTiter-Glo assay; type: functional, cell-based
SUD4 = assay: Cytotoxicity against human SUDHL4 cells assessed as reduction in cell viability after 24 hrs by CellTiter-Glo assay; type: functional, cell-based; conditions: SU-DHL-4, 24 h
OCI-Ly10 = assay: Cytotoxicity against human OCI-LY10 cells assessed as reduction in cell viability after 24 hrs by CellTiter-Glo assay; type: functional, cell-based; conditions: OCI-Ly10, 24 h
NB-4 [5] = assay: Induction of cell differentiation in human NB4 cells at 3 uM after 6 days by light microscopy based NBT reduction assay; type: functional
[6] = target: T1, Peroxiredoxin-1 (Homo sapiens) (UniProt Q06830); assay: Binding affinity to wild type recombinant human N-terminal 6His-tagged peroxiredoxin-1 expressed in Escherichia coli BL21 after 1 hr by LC-MS/MS analysis
T1 sequence (whole entry): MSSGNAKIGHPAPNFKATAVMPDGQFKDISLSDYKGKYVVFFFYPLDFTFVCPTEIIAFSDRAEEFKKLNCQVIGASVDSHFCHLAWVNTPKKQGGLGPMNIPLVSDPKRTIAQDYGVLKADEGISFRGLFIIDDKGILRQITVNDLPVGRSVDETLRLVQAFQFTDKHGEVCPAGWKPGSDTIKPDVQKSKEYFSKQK

[7] = target: T2, Peroxiredoxin-2 (Homo sapiens) (UniProt P32119); assay: Binding affinity to wild type recombinant human N-terminal 6His-tagged peroxiredoxin-2 expressed in Escherichia coli BL21 after 1 hr by LC-MS/MS analysis
T2 sequence (whole entry): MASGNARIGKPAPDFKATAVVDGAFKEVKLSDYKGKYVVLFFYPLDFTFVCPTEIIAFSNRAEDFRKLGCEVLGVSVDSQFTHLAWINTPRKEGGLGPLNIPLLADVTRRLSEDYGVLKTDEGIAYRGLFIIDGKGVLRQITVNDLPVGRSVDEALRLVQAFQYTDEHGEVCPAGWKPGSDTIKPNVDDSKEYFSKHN

A549 = assay: Cytotoxicity against human A549 cells assessed as reduction in cell viability after 24 hrs by CellTiter-Glo assay; type: functional, cell-based
[8] = target: T1, Peroxiredoxin-1 (Homo sapiens); assay: Binding affinity to wild type recombinant human N-terminal 6His-tagged peroxiredoxin-1 expressed in Escherichia coli BL21 up to 200 uM by immunoblot analysis
NB-4 [9] = assay: Cytotoxicity against human NB4 cells assessed as reduction in cell viability at 3 uM measured up to 72 hrs by trypan blue exclusion assay; type: functional, cell-based
NB-4 [10] = assay: Induction of cell differentiation in human NB4 cells assessed as reduction in nucleus/cytoplasm ratio at 3 uM after 6 days by Wright-Giemsa staining based assay; type: functional
NB-4 [11] = assay: Induction of cell differentiation in human NB4 cells assessed as CD11b positive cells at 3 uM after 6 days by flow cytometry (reference value: 7.25 +/- 1.18%); type: functional
[12] = Induction of cell differentiation in human NB4-LR2 cells assessed as CD11b+ expression at 4 uM after 24 hrs by flow cytometry (reference value: 6.36%); type: functional
U-937 = assay: Induction of cell differentiation in human U937 cells assessed as CD11b+ expression at 4 uM after 24 hrs by flow cytometry (reference value: 13.46%); type: functional
NB-4 [13] = assay: Induction of cell differentiation in human NB4 cells assessed as CD11b+ expression at 3 uM after 3 days by flow cytometry (reference value: 7.5%); type: functional
NB-4 [14] = assay: Potentiation of ATRA-induced cell differentiation in human NB4 cells assessed as CD11b+ expression at 3 uM after 3 days by flow cytometry (reference value: 56.1%); type: functional
[15] = Induction of cell differentiation in human NB4-LR2 cells assessed as CD11b+ expression at 2 uM after 3 days by flow cytometry (reference value: 13.3%); type: functional
[16] = Potentiation of ATRA-induced cell differentiation in human NB4-LR2 cells assessed as CD11b+ expression at 2 uM after 3 days by flow cytometry (reference value: 28.8%); type: functional
[17] = Induction of cell differentiation in human MR2 cells assessed as CD11b+ expression at 2 uM after 3 days by flow cytometry (reference value: 4.3%); type: functional
[18] = Potentiation of ATRA-induced cell differentiation in human MR2 cells assessed as CD11b+ expression at 2 uM after 3 days by flow cytometry (reference value: 24.5%); type: functional
NB-4 [19] = assay: Induction of ROS accumulation in human NB4 cells at 3 uM by CM-H2DCFDA probe based flow cytometry; type: functional, cell-based
NB-4 [20] = assay: Induction of cell differentiation in human NB4 cells assessed as CD11b+ expression at 3 uM pretreated with NAC for 4 hrs followed by compound addition measured after 6 days by flow cytometry (reference value: 4.58 +/- 1.53%); type: functional
NB-4 [21] = assay: Induction of cell differentiation in human NB4 cells assessed as CD11b+ expression at 3 uM measured after 6 days by flow cytometry (reference value: 4.58 +/- 1.53%); type: functional
NB-4 [22] = assay: Cytotoxicity against human NB4 cells assessed as reduction in cell viability pretreated with NAC for 4 hrs followed by compound addition measured after 24 hrs by trypan blue assay; type: functional, cell-based

## C=C1C(=O)C2C3=C(CCC4C(C)(C)CCCC34C)CC1C2O (racemic)
[1]
  viability at 24 h, 20 µM: 80%
PBMC
  Activity: Non-Toxic
SU-DHL-2
  IC50: < 5 µM
[2]
  IC50: < 5 µM

## C=C1C(=O)[C@@H]2C3=C(CC[C@@H]4C(C)(C)CCC[C@@]34C)C[C@H]1[C@@H]2O
NB-4 [3]
  IC50: 4.7 µM
[4]
  IC50: 3.1 µM
HL-60
  IC50: 3.1 µM
Ramos
  IC50: 5.1 µM
SUD4
  IC50: 4.8 µM
OCI-Ly10
  IC50: 8.4 µM
NB-4 [5]
  Activity: 17%

## C=C1C(=O)[C@H]2C3=C(CC[C@H]4C(C)(C)CCC[C@]34C)C[C@@H]1[C@H]2O
[6]
  Activity: Active
[7]
  Activity: Active
NB-4 [3]
  IC50: 1.8 µM
[4]
  IC50: 1.6 µM
HL-60
  IC50: 1.8 µM
Ramos
  IC50: 1.9 µM
SUD4
  IC50: 1.3 µM
OCI-Ly10
  IC50: 3.7 µM
A549
  Activity: Active
[8]
  Activity: Active
NB-4 [9]
  Activity: inactive
NB-4 [10]
  Activity: Active
NB-4 [11]
  Activity: 40.7%
NB-4 [5]
  Activity: 40%
[12]
  Activity: 21.4%
U-937
  Activity: 33.13%
NB-4 [13]
  Activity: 16.4%
NB-4 [14]
  Activity: 80.6%
[15]
  Activity: 29.4%
[16]
  Activity: 49.5%
[17]
  Activity: 4.9%
[18]
  Activity: 32.6%
NB-4 [19]
  Activity: Active
NB-4 [20]
  Activity: 13.2%
NB-4 [21]
  Activity: 44.97%
NB-4 [22]
  Activity: inactive
